The values below come from PMC10386886, “First-in-class multifunctional TYMS nonclassical antifolate inhibitor with potent in vivo activity that prolongs survival” (JCI Insight, 2023).

For assay [1], the target named is T1, purified human TYMS (Homo sapiens, UniProt P04818).
T1 construct: 6xHis (N); made in house; host or cells: E. coli BL21 (DE3), vector pQE80L-hTYMS
Description: Tritium-based TYMS catalytic activity assay. Format: biochemical. As to the method: To determine the inhibition of TYMS activity, we utilized a tritium-based TYMS catalytic assay (Figure 1A) to quantify the conversion of dUMP, which is proportional to TYMS activity ([33]). The assay was based on a previously published protocol ([33]) and modified to determine the amount of purified human TYMS (hTYMS) to be used in the conversion of dUMP to dTMP. […]
Tritium based TYMS catalytic activity assay
The catalytic activity of TYMS was determined by measuring the release of [3H] from [5-3H]dUMP (ViTrax, Cat # VT122) resulting from the conversion of dUMP to dTMP as previously described (2, 3).
The reaction conditions were optimized to determine the amount of TYMS protein needed to establish […]
reactions performed without TYMS or without the 5,10-methylene tetrahydrofolate (5,10-mTHF) cofactor (Supplemental Figure 2 and Supplemental methods). Reactions were performed in 50 mM KH2PO4 (Sigma Aldrich, Cat # P0662) at pH 7.2 using 2 µg of purified human TYMS. Reactions were performed in a final volume of 200 µL with 100 mM β-mercaptoethanol (Sigma Aldrich, Cat # M7522), 40 µM dUMP (Sigma Aldrich, Cat # D3876), 100 µM 5,10-mTHF, and the [5-3H]dUMP tracer (ViTrax, Cat # VT122) accounting for 0.06% of the final dUMP concentration in the reaction. The 5,10-mTHF used in the reaction was separately generated from tetrahydrofolic acid (Sigma Aldrich, Cat # T3125) by dissolving the solid in 10 mM KH2PO4 with 143 mM β-mercaptoethanol (1:100 from 14.3 M pure liquid), and 6.35 mM formaldehyde (Sigma Aldrich, Cat # 47608) to yield a 100 mM stock solution of 5,10- mTHF. Reactions were initiated by the addition of the dUMP substrate and 5,10-mTHF cofactor, then incubated at 37 °C for 30 minutes. […]
before the reaction was initiated by the addition of the dUMP substrate and 5,10-mTHF cofactor.
Reactions were terminated by the addition of 100 µL of ice-cold 20% trichloroacetic acid (Sigma Aldrich, Cat # T6399), then excess [5-3H]dUMP was removed by the addition of 200 µL of an albumin-coated activated charcoal solution. The albumin-coated activated charcoal solution was prepared by mixing 10 g of acid- washed activated dextran coated charcoal (Sigma Aldrich, Cat # C6241) with 2.5 g of bovine albumin (Sigma Aldrich, Cat # A1933) in 100 mL of H2O. The suspension was incubated at room temperature for 30 minutes and then centrifuged for 30 minutes at 10,000 x g. Then 150 µL of the supernatant was collected and added to 5 mL of ultima gold liquid scintillation cocktail (Perkin Elmer, Cat # 6013326, lot: 77-19085), and scintillation measurements were perform using a liquid scintillation counter (Beckman Coulter LS6500) to determine [3H]H2O levels in each sample. For all experiments, positive control reactions were performed with no drug representing 100% TYMS activity, and negative

In assay [2] the target is T1, purified human TYMS. In words: Competitive drug displacement assay (tritium TYMS assay). Format: biochemical. As to the method: For these experiments the TYMS protein was first incubated with each drug, and the reaction was then initiated by addition of 5,10-mTHF and dUMP using different concentrations of either 5,10-mTHF or dUMP to change the substrate/drug ratio. If there was competition between one of the substrates and the drug for the same binding site, then increasing the substrate concentration would displace more of the prebound drug and shift the equilibrium toward the enzyme/substrate complex, thus allowing the conversion of dUMP to proceed (Figure 7A). […]
all components including 2 µg TYMS protein to show the range of the assay, the background signal, and the dependence on 5,10-mTHF (Supplemental Figure 2C). To determine the signal from the [5-3H]dUMP tracer used in each reaction the same amount of the dUMP substrate with the [5-3H]dUMP tracer accounting for 0.06% of the final dUMP concentration was added directly to 5 mL of ultima gold liquid scintillation cocktail (Supplemental Figure 2C).
All reactions were performed in biological duplicate and technical duplicate. Results were analyzed using GraphPad Prism 9.
Competitive drug displacement assay
The tritium based TYMS catalytic activity assay was modified to determine if TYMS inhibition from 19-S, 19-S5, and 19-S7 was the result of competitive binding with either the dUMP substrate or the 5,10-mTHF cofactor. The competitive drug displacement assay utilized the standard reaction conditions for the tritium-based TYMS catalytic activity assay including 40 µM dUMP (Sigma Aldrich, Cat # D3876) with the [5- 3H]dUMP tracer (ViTrax, VT122) accounting for 0.06% of the final dUMP concentration and 100 µM 5,10- methylene tetrahydrofolate (defined as 1x dUMP and 1x 5,10-mTHF). Concentrations of total dUMP and 5,10- mTHF were then changed relative to these 1x concentrations to concisely indicate the changes in either the substrate or cofactor concentration. The highest 5x concentration of 5,10 - […]
5x concentration of total dUMP was not limited by solubility, although increases were performed in the same increments as 5,10-mTHF for comparison and 0.06% of the [5-3H]dUMP tracer was maintained at all concentrations. The remaining components in each 200 µL reaction were consistent in all reactions and included 2 µg of purified human TYMS in 50 mM KH2PO4 (Sigma Aldrich, Cat # P0662) and 100 mM β- mercaptoethanol (Sigma Aldrich, Cat # M7522). Control antifolate inhibitor PEM (Sigma Aldrich, Cat # PHR1596) was performed for reference of a TYMS specific classical antifolate and to […]
Human TYMS and DHFR preparation
Human Thymidylate Synthase (hTYMS) and human Dihydrofolate Reductase (hDHFR) were both expressed in BL21 (DE3) E. coli cells, using a standard BL21 transformation protocol, with the expression vector pQE80L-hTYMS (gift from Maria Paola Costi, University of Modena and Reggio Emilio, Italy) and pET100/D- TOPO (Invitrogen, Cat # K10001), respectively. Both vectors contained an N-terminal 6x Histidine tag attached to either hTYMS or hDHFR. After bacterial transformation, cells

Setting [3] is: TS preincubated with drug, Figure 7.

The structures appear in SMILES notation.

T1 sequence (P04818 whole entry): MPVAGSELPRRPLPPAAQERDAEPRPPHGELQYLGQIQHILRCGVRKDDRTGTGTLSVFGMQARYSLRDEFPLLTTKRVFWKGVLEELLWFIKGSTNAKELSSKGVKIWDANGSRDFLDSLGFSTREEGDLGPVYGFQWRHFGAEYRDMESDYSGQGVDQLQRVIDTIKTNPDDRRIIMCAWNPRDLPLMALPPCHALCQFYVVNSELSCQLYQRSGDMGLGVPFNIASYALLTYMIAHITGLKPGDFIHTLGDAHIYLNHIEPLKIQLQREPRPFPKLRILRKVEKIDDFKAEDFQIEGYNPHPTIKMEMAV

For the compound `CCc1nc(N)nc(N)c1-c1ccc(N(C)Cc2ccc3c(c2)OCO3)c([N+](=O)[O-])c1` [Compound 19-S7], on purified human TYMS [1] (250 μM, Figure 6A), the “TS activity, screen of 19-S series analogs” value is listed as “inhibited TYMS activity”. Besides, on purified human TYMS [1] (Figure 6C), the “TS activity, comparison at decreasing drug concentrations” value is “greater TYMS inhibition than both MTX and PEM”. Further, the “Mechanism of TYMS inhibition” value at purified human TYMS [2] was “blocking the folate-binding site”. For the same compound, on purified human TYMS [2] (setting [3]), the “dUMP conversion with increasing 5,10-mTHF concentration” value was “increased the amount of dUMP conversion” and the “dUMP conversion with increasing dUMP concentration” value is “the amount of dUMP conversion did not increase”.
